Experimental data published in patent US12447184B1, “Lactic acid bacteria and use thereof” (UNIVERSITY-INDUSTRY COOPERATION GROUP OF KYUNG HEE …, priority 2017, dated 2025).

Columns and labels:
BDNF in a hippocampus = BDNF in a hippocampus by immunoblotting (LPS-treated mouse); type: in vivo; conditions: mouse given LPS from E. coli 0.5 mg/kg/day i.p. for five days
Experimental: (§1) On a following day after intraperitoneally administering LPS isolated from E. coli (0.5 mg/kg/day) to a mouse for five days, lactic acid bacteria were administered thereto, and an effect of lactic acid bacteria on improving a cognitive function was identified in such a way that an object recognition test and a Y maze test were performed and BDNF in a hippocampus was measured by immunoblotting, wherein the results thereof are as shown in a following table 18.

mouse [1] = experiment: Light/dark transition test; type: in vivo; conditions: immobilization stress model
Experimental: An apparatus used for a light/dark transition test consisted of a bright area (21×42×25 cm, 390 Lux white diode) and a dark area (21×42×25 cm, 2 Lux), which were of a size and partitioned off with a door (7.5×7.5 cm). A mouse was placed in a bright area and observed for five minutes, during which time in bright area and the number of transitions into the bright area were measured. After the end of each behavioral experiment, remaining smell was eliminated by means of 70% ethanol.
According to a known interpretation of test results, it was interpreted that a mental disorder symptom such as anxiety, depression or the like occurs, if the time in bright area and the number of transitions into the bright area decrease.

[2] = system: corticosterone, IL-6, TNF-α and lipopolysaccharide in blood; experiment: Blood indicators (corticosterone, IL-6, TNF-α, lipopolysaccharide); type: in vivo, mouse; conditions: for BC (ng/mL), corticosterone in blood: immobilization stress
Experimental: (§2) An anxiety behavior was measured in five hours after administering the lactic acid bacterium or physiological saline solution, and blood indicators (corticosterone, IL-6, TNF-α, etc.) were measured by collecting blood in one hour after finishing an elevated plus maze test.
Blood was diluted 10 times with PBS, then centrifuged, and then a resulting supernatant was treated at […] for 10 minutes. A resulting supernatant was filtered with a 0.45 μm filter, then filtered again with a 0.22 μm filter, and then used as a specimen. For the said specimen, lipopolysaccharide was measured by means of Limulus amoebocyte lysate (LAL) assay kit (Cape Cod Inc., East Falmouth, MA, U.S.A.).
(§3) Inflammatory reaction biomarkers such as p-p65, p65, iNOS, COX-2 and β-actin were measured by means of a western blotting method. Particularly, 50 μg of supernatant, which had been obtained by the same method as shown in the said experiment for measuring the activity of myeloperoxidase (MPO), was taken and then immune blotting was performed thereon. Also, an expression level of cytokines was measured by means of ELISA kit, and LPS was measured by means of LAL assay kit.
(§4) In two hours after performing a last behavioral experiment on a depressed mouse, the mouse was anesthetized, and corticosterone in blood was measured by means of ELISA, and a brain derivated neurotrophic factor (BDNF) and NF-κB of a brain and NF-κB of a colon were measured by means of immunoblotting by the same method as shown in Experimental Example 5 above, wherein the results thereof are as shown in a following table 14.

colon [3] = experiment: Colitis indicators (colon length, myeloperoxidase, inflammatory indicators of the colon); type: in vivo, mouse; conditions: antibiotic stress
mouse [4] = experiment: Forced swimming test (FST); type: in vivo; conditions: depressed mouse model
Experimental: (§5) Also, in order to prepare a mouse with depression induced by immobilization stress, the said mouse, which had been fixed to the apparatus, was repeatedly subjected to continuous immobilization stress once daily for two days, in such a way that the mouse was held with its head up for 12 hours. A lactic acid bacterium was administered once daily for five days, and a behavioral experiment was performed in one hour after a final administration.
According to a method of Porsolt et al. (Porsolt R D, Le Pichon, Jalfre M (1977) Depression: A new animal model sensitive to antidepressant treatments, Nature, Vol. 266; pp. 730-732), water at 25±1° C. was filled into a water tank 40 cm in height and 20 cm in diameter, until a water level reached 25 cm high. A laboratory mouse was put into each tank and stayed there for total six minutes, out of which first two minutes were not measured as an adaptive time, and then for the last four minutes, an immobility time of the laboratory animal was measured. The immobility means a state that the mouse is floating in the water motionlessly except the least movement to keep its head only above the water.

mouse [5] = experiment: Y maze test; type: in vivo; conditions: mouse given LPS from E. coli 0.5 mg/kg/day i.p. for five days; spontaneous alteration
Experimental: as §1
Also, as a Y maze test method, a test apparatus consisted of the three identical arms (8 cm in length, […], 14 cm in height), each positioning at a certain angle of 120°. The mouse was placed at the end of one arm and allowed to freely move in a Y maze for eight minutes, after which the number and order of entering respective arms were measured, so as to evaluate a spontaneous alteration (%). The alteration was defined as an alphabetical character order, in which the mouse sequentially entered into three arms, i.e. ABC, BCA, CAB, etc. % alteration=[Total number of alterations]/[Total number of arm entries−2]×100

[6] = system: NF-κB (p-p65/p65) and BDNF in a hippocampus; experiment: NF-κB activity and BDNF expression in hippocampus (immunoblotting); type: in vivo; conditions: depressed mouse
Experimental: as §3, §4

colon [7] = experiment: Colitis indicators (colon length, myeloperoxidase, inflammatory indicators of the colon); type: in vivo, mouse; conditions: immobilization stress
Experimental: 200 μl of 10 mM potassium phosphate buffer, pH 7.0 containing 0.5% hexadecyl trimethyl ammonium bromide was put into 100 mg of a colon tissue, and then subjected to homogenization. A resulting mixture was centrifuged for 10 minutes on condition of 4° C. and 10,000 g, so as to obtain a supernatant. 50 μl of the supernatant was put into 0.95 ml of a reaction solution (containing 1.6 mM tetramethyl benzidine and 0.1 mM H2O2), then subjected to reaction at 37° C., and then an observance was […] measured at 650 nm. An activity of the said myeloperoxidase (MPO) was calculated with a resulting reactant H2O2 1 μmol/ml=1 unit.
as §3
In two hours after performing a last behavioral experiment on an anxious mouse in Experimental Example 1, the mouse was anesthetized, and a colon length and activations of MPO, COX-2, TNF-α and NF-Kb were measured by the same method as shown in Experimental Example 5, wherein the results thereof are as shown in a following table 15.

C57BL/6 mouse = experiment: Elevated plus maze (EPM) test; type: in vivo; conditions: for OE (%) / OT (%): immobilization stress
Text: In order to induce a mental disorder such as anxiety, depression, stress or the like, a mouse was fixed to a 3×10 cm cylindrical-shaped immobilization stress apparatus, such that the mouse may not move therein at all.
Particularly, in order to prepare a mouse with anxiety induced by immobilization stress, the said mouse, which had been fixed to the apparatus, was repeatedly subjected to immobilization stress five times, in such a way that the mouse was held with its head up for two hours once every other day, and then a behavioral experiment was performed in two hours after a final immobilization stress.
as §5
In order to induce a mental disorder such as anxiety, depression, stress or the like, a mouse was administered ampicillin (100 mg/kg) for two days in a row. An anxiety behavior was measured in 10 days after administration.
For a mouse model with immobilization stress induced, a lactic acid bacterium or physiological saline solution was administered thereto depending on an experimental group once daily for three days from Day 7 after starting the immobilization stress. For a mouse model with antibiotic stress induced, a lactic acid bacterium or physiological saline solution was administered thereto depending on an experimental group once daily for three days from Day 7 after starting the antibiotic stress.
as §2
An elevated plus maze is an experimental apparatus to measure a degree of a mental disorder such as stress, anxiety or the like. An elevated plus maze experimental apparatus used in the present experiment is a black plexiglass apparatus, in which two open arms (30×7 cm) and two enclosed arms (30×7 cm) with 20 cm-high walls stand 50 cm high above a floor, each extending 7 cm away from a center platform. In the present test, a mouse was placed in the elevated plus maze in a room, where a video camera of 20 Lux was installed high up there, and then a movement of the mouse was recorded.
Particularly, a C57BL/6 mouse (male, 19-22 g) was placed in the middle of the elevated plus maze, in such a way that a head of the mouse faced toward an open arm. Time spent in open and closed arms as well as the number of arm entries were measured for five minutes. An arm entry was defined as a case in which the mouse entered an arm with all four feet.
Out of a whole test time, the time spent in open arms (OT) was calculated via [Time spent in open arms (OT)/(Time spent in open arms (OT)+Time spent in closed arms)]×100. […] After the end of each behavioral experiment, remaining smell was eliminated by means of 70% ethanol.
According to a known interpretation of test results, it was interpreted that a mental disorder symptom such as anxiety, depression or the like occurs, if OT and OE decrease.

mouse [8] = experiment: Object recognition test; type: in vivo; conditions: mouse given LPS from E. coli 0.5 mg/kg/day i.p. for five days
Experimental: as §1
Particularly, as an object recognition test method, two objects (A, A′) of the same shape and size were fixed into a box (40×40×40 cm), of which outside is not visible from the inside, then a mouse was allowed to start moving at the center of the box, and then the number of touching the two objects was recorded for 10 minutes. In 24 hours later, one of the two objects was replaced with a new one (A, B), and then the number of touching an old one and a new one was recorded and quantified.

mouse [9] = experiment: Tail suspension test (TST); type: in vivo; conditions: depressed mouse model
Experimental: as §5
According to a method of Steru et al. (Steru L, Chermat R, Thierry B, Simon P (1985) The tail suspension test: A new method for screening antidepressants in mice, Psychopharmacology, Vol. 85; pp. 367-370), a mouse was hanged up in a container 35 cm in diameter and 50 cm in height by placing a fixing device approximately 1 cm from the tip of a tail thereof of a mouse, such that the mouse was suspended 50 cm above a floor. For six minutes in total, an immobility time of the laboratory animal was measured.

[10] = antibiotic stress (ampicillin 100 mg/kg, two days)

## O=C1CC2(CCCC2)CC(=O)N1CCCCN1CCN(c2ncccn2)CC1 [Buspirone]
BDNF in a hippocampus
  Hippocampus BDNF expression capacity: + (+, 10~30%)
Mouse [1]
  Number of transitions: 19.6
  Time in bright area (%): 40.1%
[2]; Anxious mouse
  BC (ng/mL), corticosterone in blood: 1.2 ng/mL
[2]; Depressive mouse
  BC (ng/mL), corticosterone in blood: 3.8 ng/mL
[2]; [10]
  Blood corticosterone: 1.6 ng/mL
[2]; depressed mouse, ELISA, Table 14
  Blood corticosterone: 3.8 ng/mL
Colon [3]
  Colon length (cm): 5.5 cm
Colon [3]; colon
  Inflammatory indicator inhibition rate COX-2: + (+, 10~30%)
  Inflammatory indicator inhibition rate NF-κB: + (+, 10~30%)
  Inflammatory indicator inhibition rate TNF-α: + (+, 10~30%)
  MPO inhibitory capacity: + (+, 10~30%)
Mouse [4]
  Immobility time (%): 32.1%
Mouse [5]
  Y maze test (%): 62.4%
[6]
  BDNF expression level: − (− , <10%)
  NF-kB activation inhibitory capacity: − (− , <10%)
Colon [7]; Anxious mouse
  Colon length (cm): 5.2 cm
Colon [7]; anxious mouse, colon
  Inflammatory indicator inhibition rate COX-2: + (+, 10~30%)
  Inflammatory indicator inhibition rate NF-κB: + (+, 10~30%)
  Inflammatory indicator inhibition rate TNF-α: + (+, 10~30%)
  MPO inhibitory capacity: + (+, 10~30%)
C57BL/6 mouse; Anxious mouse
  OE (%): 33.8%
C57BL/6 mouse; Anxious mouse, once daily for three days
  OT (%): 16.7%
C57BL/6 mouse; Depressive mouse
  OE (%): 29.8%
  OT (%): 15.7%
C57BL/6 mouse; [10]
  Open arm entries (%): 31.3%
  Time spent in open arms (%): 14.1%
Mouse [8]
  Object recognition test (%): 42.9%
Mouse [9]
  Immobility time (%): 25.2%
